Assay results published in US20230348426A1, “OXOPYRROLIDINE FPR2 AGONISTS” (Bristol-Myers Squibb Company, priority 2020, published 2023).

Legend:
[1] = target: human FPR1 (Homo sapiens (Human), UniProt P21462); assay: FPR1 cyclic adenosine monophosphate (cAMP) assay; type: cell-based; settings: CHO cells overexpressing human FPR1; forskolin 10 µM; inhibition of cAMP production; read-out: hFPR1 cAMP EC50
Method in brief: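 CHO cells overexpressing human FPR1 (4,000 cells/well) stimulated with 10 µM forskolin plus 200 µM IBMX in the presence of compound (0.020 nM–100 µM, 1% DMSO), 30 min at room temperature. Intracellular cAMP measured by HTRF. Inhibition of cAMP production fitted to a 4-parameter logistic equation.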

[2] = target: human FPR2 (Homo sapiens (Human), UniProt P25090); assay: FPR2 cyclic adenosine monophosphate (cAMP) assay; type: cell-based; settings: CHO cells overexpressing human FPR2; forskolin 5 µM; inhibition of cAMP production; read-out: hFPR2 cAMP2 EC50
Chain of human FPR2 (P25090 whole entry): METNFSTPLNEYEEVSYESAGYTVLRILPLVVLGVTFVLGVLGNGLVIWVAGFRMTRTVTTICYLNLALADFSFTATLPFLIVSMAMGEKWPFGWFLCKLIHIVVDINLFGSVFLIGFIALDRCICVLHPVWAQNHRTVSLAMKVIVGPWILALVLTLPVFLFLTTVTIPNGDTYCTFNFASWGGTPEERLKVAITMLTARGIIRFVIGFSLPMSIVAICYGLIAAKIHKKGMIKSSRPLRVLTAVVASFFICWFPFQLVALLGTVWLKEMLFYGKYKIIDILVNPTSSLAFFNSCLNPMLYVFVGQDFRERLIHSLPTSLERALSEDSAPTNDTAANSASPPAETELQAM
Method in brief: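 CHO cells overexpressing human FPR2 (2,000/well) incubated 30 min at room temperature with compound (0.020 nM–100 µM, 1% DMSO), 5 µM forskolin and 200 µM IBMX.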

Chain of human FPR1 (P21462 whole entry): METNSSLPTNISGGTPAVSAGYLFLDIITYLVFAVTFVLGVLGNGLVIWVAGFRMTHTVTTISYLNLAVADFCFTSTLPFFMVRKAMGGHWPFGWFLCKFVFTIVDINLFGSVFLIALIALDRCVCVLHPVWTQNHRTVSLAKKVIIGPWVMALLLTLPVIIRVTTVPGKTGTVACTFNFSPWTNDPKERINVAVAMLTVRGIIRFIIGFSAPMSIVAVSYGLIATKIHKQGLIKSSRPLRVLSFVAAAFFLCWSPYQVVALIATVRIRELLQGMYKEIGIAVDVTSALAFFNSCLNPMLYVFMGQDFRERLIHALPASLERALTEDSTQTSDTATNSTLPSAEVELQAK

Structure (SMILES)	EC50 [1] [nM]	EC50 [2] [nM]
COc1cc(F)c([C@@H]2CN(c3cnn4c3OCCC4)C(=O)[C@H]2NC(=O)c2ccc(OC(F)(F)F)cc2)c(F)c1 [Example 598]	590	6.2
COc1cc(F)c([C@@H]2CN(c3cccn4c(C)nnc34)C(=O)[C@H]2NC(=O)c2ccc(OC(F)F)cc2)c(F)c1 [Example 599]	40	4.1
COc1cc(F)c([C@@H]2CN(c3c(C)ccn(C(F)(F)C(=O)N4CCOCC4)c3=O)C(=O)[C@H]2NC(=O)c2ccc(OC(F)F)cc2)c(F)c1 [Example 600]	170	7.8
COc1cc(F)c([C@@H]2CN(c3c(C)ccn(C4CCNC4)c3=O)C(=O)[C@H]2NC(=O)c2ccc(OC(F)F)cc2)c(F)c1 (some centres unmarked) [Example 601]	170	2
COc1cc(F)c([C@@H]2CN(c3c(C)ccn(C4CCNC4)c3=O)C(=O)[C@H]2NC(=O)c2ccc(OC(F)(F)F)cc2)c(F)c1 (some centres unmarked) [Example 602]	88	3.8
COc1cc(F)c([C@@H]2CN(c3cccn4c(C)nnc34)C(=O)[C@H]2NC(=O)c2ccc(Cl)cc2)c(F)c1 [Example 603]	56	3.9
COc1cc(F)c([C@@H]2CN(c3cccn4c(C)nnc34)C(=O)[C@H]2NC(=O)c2ccc(OC(F)(F)F)cc2)c(F)c1 [Example 604]	15	0.5
COc1cc(F)c([C@@H]2CN(c3c(C)c4c(n(CCO)c3=O)CCCC4)C(=O)[C@H]2NC(=O)c2ccc(OC(F)F)cc2)c(F)c1 [Example 605]	1.9	< 5
COc1cc(F)c([C@@H]2CN(c3c(C)c4c(n(CCO)c3=O)CCCC4)C(=O)[C@H]2NC(=O)c2ccc(OC(F)(F)F)cc2)c(F)c1 [Example 606]	53	20
COc1cc(F)c([C@@H]2CN(c3c(C)c4c(n(CCO)c3=O)CCCC4)C(=O)[C@H]2NC(=O)c2ccc(Cl)cc2)c(F)c1 [Example 607]	30	13.3
O=C(N[C@@H]1C(=O)N(c2cccn(CC(O)C(F)(F)F)c2=O)C[C@H]1c1ccc(Cl)cc1)c1ccc(OC(F)(F)F)cc1 (some centres unmarked) [Example 608]	4.2	4.1
O=C(N[C@@H]1C(=O)N(c2cccn(CC(O)C(F)(F)F)c2=O)C[C@H]1c1ccc(Cl)cc1)c1ccc(OC(F)(F)F)cc1 (some centres unmarked) [Example 609]	28	1.8
COc1ccc([C@@H]2CN(c3c(C)ccn(CC4CC4)c3=O)C(=O)[C@H]2NC(=O)c2ccc(OC(F)F)cc2)cc1 [Example 610]	0.3	1
COc1cc(F)c([C@@H]2CN(c3c(C)ccn(CCC(F)(F)F)c3=O)C(=O)[C@H]2NC(=O)c2ccc(Cl)cc2)c(F)c1 [Example 611]	5.9	2.4
COc1cc(F)c([C@@H]2CN(c3c(C)ccn(C4CCNC4)c3=O)C(=O)[C@H]2NC(=O)c2ccc(OC(F)F)cc2)c(F)c1 (some centres unmarked) [Example 612]	33	13.5

Other lines, results leading:

EC50 [1] [nM]	EC50 [2] [nM]	Structure (SMILES)
9.3	11.8	COc1cc(F)c([C@@H]2CN(c3c(C)ccn(C4CCNC4)c3=O)C(=O)[C@H]2NC(=O)c2ccc(OC(F)(F)F)cc2)c(F)c1 (some centres unmarked) [Example 613]
33	6	COc1cc(F)c([C@@H]2CN(c3c(C)ccn(CC4CCO4)c3=O)C(=O)[C@H]2NC(=O)c2ccc(Cl)cc2)c(F)c1 (some centres unmarked) [Example 614]
5.3	8.7	COc1cc(F)c([C@@H]2CN(c3c(C)ccn(CC4CCO4)c3=O)C(=O)[C@H]2NC(=O)c2ccc(OC(F)(F)F)cc2)c(F)c1 (some centres unmarked) [Example 615]
20	9.4	COc1cc(F)c([C@@H]2CN(c3c(C)ccn(CC4CCO4)c3=O)C(=O)[C@H]2NC(=O)c2ccc(OC(F)F)cc2)c(F)c1 (some centres unmarked) [Example 616]
18	9.1	COc1cc(F)c([C@@H]2CN(c3c(C)ccn(CC4CCO4)c3=O)C(=O)[C@H]2NC(=O)c2ccc(OC(F)F)cc2)c(F)c1 (some centres unmarked) [Example 617]
9.5	1	COc1cc(F)c([C@@H]2CN(c3c(C)ccn(CC4CCO4)c3=O)C(=O)[C@H]2NC(=O)c2ccc(Cl)cc2)c(F)c1 (some centres unmarked) [Example 618]
64	9.4	COc1cc(F)c([C@@H]2CN(c3c(C)ccn(CC4CNC(=O)O4)c3=O)C(=O)[C@H]2NC(=O)c2ccc(OC(F)F)cc2)c(F)c1 (some centres unmarked) [Example 619]
6.5	7.4	COc1ccc([C@@H]2CN(c3ccnn(CC(F)F)c3=O)C(=O)[C@H]2NC(=O)c2ccc(OC(F)F)cc2)c(F)c1 [Example 620]
64	90	COc1cc(F)c([C@@H]2CN(c3c(C)ccn([C@H]4COC[C@@H]4O)c3=O)C(=O)[C@H]2NC(=O)c2ccc(Cl)cc2)c(F)c1 [Example 621]
2.2	8.4	COc1cc(F)c([C@@H]2CN(c3c(C)ccn([C@H]4COC[C@@H]4O)c3=O)C(=O)[C@H]2NC(=O)c2ccc(OC(F)(F)F)cc2)c(F)c1 [Example 622]
160	11.5	COc1cc(F)c([C@@H]2CN(c3c(C)ccn([C@H]4COC[C@@H]4O)c3=O)C(=O)[C@H]2NC(=O)c2ccc(Cl)cc2)c(F)c1 [Example 623]
9.3	1.5	COc1cc(F)c([C@@H]2CN(c3c(C)ccn([C@H]4COC[C@@H]4O)c3=O)C(=O)[C@H]2NC(=O)c2ccc(OC(F)F)cc2)c(F)c1 [Example 624]
13	0.7	COc1cc(F)c([C@@H]2CN(c3c(C)ccn(C4CCS(=O)(=O)CC4)c3=O)C(=O)[C@H]2NC(=O)c2ccc(OC(F)F)cc2)c(F)c1 [Example 626]
2	8.6	COc1cc(F)c([C@@H]2CN(c3c(C)ccn(C4CCS(=O)(=O)CC4)c3=O)C(=O)[C@H]2NC(=O)c2ccc(OC(F)(F)F)cc2)c(F)c1 [Example 627]
59	4.7	COc1cc(F)c([C@@H]2CN(c3nn(C4COC4)c(=O)cc3C)C(=O)[C@H]2NC(=O)c2ccc(OC(F)F)cc2)c(F)c1 [Example 628]
670	9.9	COc1cc(F)c([C@@H]2CN(c3cn(C)nc3OC)C(=O)[C@H]2NC(=O)c2ccc(Cl)cc2)c(F)c1 [Example 629]
1100	5.2	COc1cc(F)c([C@@H]2CN(c3cn(C)nc3OC)C(=O)[C@H]2NC(=O)c2ccc(OC(F)F)cc2)c(F)c1 [Example 630]
160	10	COc1cc(F)c([C@@H]2CN(c3cn(C)nc3OC)C(=O)[C@H]2NC(=O)c2ccc(OC(F)(F)F)cc2)c(F)c1 [Example 631]
3.7	0.9	COc1ccc([C@@H]2CN(c3c(C)ccn(CC(F)F)c3=O)C(=O)[C@H]2NC(=O)c2ccc(OC(F)F)cc2)cc1 [Example 632]
4.3	1.4	COCCn1ccc(C)c(N2C[C@@H](c3c(F)cc(OC)cc3F)[C@H](NC(=O)c3ccc(Cl)cc3)C2=O)c1=O [Example 633]
2.3	2	COc1cc(F)c([C@@H]2CN(c3c(C)ccn(CC(O)C(F)(F)F)c3=O)C(=O)[C@H]2NC(=O)c2ccc(OC(F)F)cc2)c(F)c1 (some centres unmarked) [Example 634]
6.3	3.7	COCCn1ccc(C)c(N2C[C@@H](c3ccc(OC)cc3F)[C@H](NC(=O)c3ccc(Cl)cc3)C2=O)c1=O [Example 635]
